# Data published in ChEMBL document CHEMBL2074298, “Inhibition of vinblastine efflux mediated by P-glycoprotein by grapefruit juice components in caco-2 cells” (Biol Pharm Bull, 1998).
# Legend:
# [1] = biological target: T1, ATP-dependent translocase ABCB1 (Homo sapiens, UniProt P08183); experiment: TP_TRANSPORTER: increase in Vinblastine transepithelial transpot (apical to basal) (Vinblastine: 0.01 uM, GFJ: 50 %) in Caco-2 cells; type: functional, cell-based
# [2] = biological target: T1, ATP-dependent translocase ABCB1; experiment: TP_TRANSPORTER: increase in Vinblastine transepithelial transpot (apical to basal)(Vinblastine: 0.01 uM, Naringenin: 855 uM) in Caco-2 cells; type: functional, cell-based; conditions: caco-2, 855 µM
# T1 sequence (P08183 whole entry): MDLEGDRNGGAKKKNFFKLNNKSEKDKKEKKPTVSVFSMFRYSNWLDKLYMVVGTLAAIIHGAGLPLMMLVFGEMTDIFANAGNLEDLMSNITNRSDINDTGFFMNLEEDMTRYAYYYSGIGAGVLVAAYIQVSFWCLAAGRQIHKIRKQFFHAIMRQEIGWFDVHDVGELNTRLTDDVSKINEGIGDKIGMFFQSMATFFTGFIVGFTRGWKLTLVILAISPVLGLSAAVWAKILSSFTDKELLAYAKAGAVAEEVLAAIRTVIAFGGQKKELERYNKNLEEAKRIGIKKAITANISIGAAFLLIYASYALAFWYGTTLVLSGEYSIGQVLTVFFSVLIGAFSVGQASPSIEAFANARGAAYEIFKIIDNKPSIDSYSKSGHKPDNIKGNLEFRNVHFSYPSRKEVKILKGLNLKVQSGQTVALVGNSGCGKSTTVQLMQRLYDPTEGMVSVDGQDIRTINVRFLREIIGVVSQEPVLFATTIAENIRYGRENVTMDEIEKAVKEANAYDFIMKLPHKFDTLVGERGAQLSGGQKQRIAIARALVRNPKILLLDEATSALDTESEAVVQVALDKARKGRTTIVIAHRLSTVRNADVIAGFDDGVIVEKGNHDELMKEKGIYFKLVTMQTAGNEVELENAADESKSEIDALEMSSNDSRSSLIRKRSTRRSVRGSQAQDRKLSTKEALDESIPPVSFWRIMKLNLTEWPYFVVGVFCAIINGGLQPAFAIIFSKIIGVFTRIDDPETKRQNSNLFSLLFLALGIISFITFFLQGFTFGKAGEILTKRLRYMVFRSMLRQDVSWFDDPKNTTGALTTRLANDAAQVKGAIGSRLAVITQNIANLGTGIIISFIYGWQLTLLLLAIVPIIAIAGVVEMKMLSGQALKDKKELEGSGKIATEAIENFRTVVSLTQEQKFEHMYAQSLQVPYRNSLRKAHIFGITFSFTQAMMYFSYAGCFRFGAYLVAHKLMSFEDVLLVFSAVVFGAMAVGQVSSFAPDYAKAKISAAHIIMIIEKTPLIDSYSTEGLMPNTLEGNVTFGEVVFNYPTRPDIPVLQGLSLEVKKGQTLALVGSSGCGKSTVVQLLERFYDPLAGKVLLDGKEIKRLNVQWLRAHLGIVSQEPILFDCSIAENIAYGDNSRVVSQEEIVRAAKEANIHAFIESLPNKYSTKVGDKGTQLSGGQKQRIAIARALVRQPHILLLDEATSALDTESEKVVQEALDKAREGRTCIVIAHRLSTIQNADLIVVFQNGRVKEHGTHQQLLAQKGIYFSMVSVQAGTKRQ
Activity [1] [%],Compound,Activity [2] [%]
240,GRAPEFRUIT JUICE,
,O=C1C[C@@H](c2ccc(O)cc2)Oc2cc(O)cc(O)c21 [NARINGENIN],240
